Eight molecules from patent US20100279990A1, “ANTIPROLIFERATIVE COMPOUNDS, COMPOSITIONS AND METHODS OF USE” (RAMOT AT TEL-AVIV UNIVERSITY LTD., priority 2006, published 2010) can be followed below.

For series [1], the system named is CEM/C1 human leukemia cells. The series is described as follows: Cell proliferation of CEM/C1 human leukemia cells, 3H thymidine incorporation. The class given is cell-based. Particulars: for inhibition at 10 µM: Homo sapiens, 3H thymidine incorporation; for effect on cell proliferation: already evident at 1 μM; for cell proliferation: 1 μM, 3H thymidine incorporation 24 hours. On the procedure: […] Cells, 10,000/well, were harvested and the incorporated radioactivity was determined by liquid scintillation in a beta counter.
(Dividing cells build labelled thymidine or BrdU into new DNA.)

In series [2] the test system is CEM/C1 cell-lines (camptothecin resistant human T-cell leukemia). Put plainly: Viability of CEM/C1 cell-line, alamar blue. The class given is cell-based. Particulars: 1-30 μM. The text has this: This cell-line is a camptothecin (CPT) resistant derivative of the human T-cell leukemia purchased from ATCC (USA). […] The results are depicted in FIG. 14. Each point represents the mean+/−SEM of 4 determinations.
For orientation: Alamar Blue is a resazurin reagent that responds to reducing activity.

The subject of series [3] is human Jurkat lymphoma cells. Put plainly: Viability of human Jurkat lymphoma cells, alamar blue staining. The class given is cell-based. Conditions: for IC50: Homo sapiens, 48 hr, alamar blue. On the procedure: This example illustrates cell viability data derived from the incubation of a human. […] The results are depicted in FIGS. 1A, 1B, and 1C. […] See Nociari et al., J. Immunol. […] Each point represents the mean+/−SE of 4 determinations.

Series [4] deals with human colon carcinoma cells (HT29). Put plainly: HT29 human colon carcinoma s.c. tumor in Nude CD1 male mice. The class given is in vivo. From the text: This example illustrates the effect of several compounds, including an exemplary compound of the present invention, on tumor volume. tumor weight and body weight in mice. Nude CD1 male mice were purchased from Harlan (Israel). Animals were housed under controlled conditions (temperature, humidity) and were given food and water ad libitum. After one week of acclimatization animals were inoculated s.c. with human colon carcinoma cells (HT29) (2,000,000 cell/animals.). Therapy began 8 days after inoculation, at which time the animals were divided randomly into 4 groups (7-8 mice/group) and administered ip 3 times weekly for 4 weeks with the following compounds: […] Body weight and tumor volume were measured weekly. Tumor volume is defined as (shortest diameter)^2×(longest diameter)×0.5. At the end of the treatment, animals were sacrificed and tumors and organs collected and weighed.

Series [5] has as its system Con-A activated naive mouse splenocytes. Put plainly: Con-A-induced mouse splenocyte proliferation, alamar blue staining. The class given is cell-based. From the text:
This example illustrates cell viability data obtained by separately administering different concentrations of compound (Ia), paroxetine, citalopram, and ecitalopram to Con-A activated naive mouse splenocytes. FIG. 3A depicts the comparative effect of compound (Ia), paroxetine, citalopram and ecitalopram on Con-A-induced mouse splenocyte proliferation using alamar blue staining after 48 hr. Each point represents the mean+/−SE of 5 determinations.

In series [6] the test system is human Jurkat lymphoma cells. Put plainly: Viability of human Jurkat lymphoma cells, dexamethasone alone and in combination. The class given is cell-based. Particulars: Homo sapiens, 20 μM alone, FIG. 13B, read-out: inhibition of cell viability.
Series [7] deals with human colon carcinoma cells (HT29). The series is described as follows: cells. Particulars: HT-29, read-out: cell viability.
Series [8] shares this test system.
The subject of series [9] is Jurkat Lymphoma cells. Put plainly: Viability of Jurkat Lymphoma cells, combination with Doxorubicin. The class given is cell-based. Conditions: Homo sapiens, Doxorubicin 20 μM alone, read-out: inhibition of cell viability.
Series [10] has as its system human tumor cell lines. The series is described as follows: In vitro antitumor activity in panel of 37 human tumor cell lines (Monolayer Assay, PI), summary. The class given is cell-based. Conditions: mean over human cancer cell-lines.
For series [11], the system named is c-jun and p-c-jun expression in HaCat cells. Put plainly: Western blot of c-jun and p-c-jun expression in HaCat cells. Particulars: 15 μM, 1 hr. The class given is cell-based, human. From the text: For each sample 2×10^7 cells were used. The cells were lysed, and equal amounts of protein was fractionated on polyacrylamide gel and then transferred to PVDF membrane. The amount of the protein was detected by immuno-blotting with monoclonal anti-c-Jun or p-c-Jun antibodies (Cayman, Ann Arbor, Mich., USA). A second antibody conjugated to horseradish peroxidase was used and visualized with chemiluminescent Kit (Pierce, Rockford, Ill., USA) on film. […] Activation of the […] pathway produces p-c-Jun as a major end, while initiating apoptosis in certain cell-lines.
In general terms: A western blot detects proteins with antibodies after separation by electrophoresis.

For series [12], the system named is Caspase 3 activity of LS1034 human colon MDR carcinoma cells. The series is described as follows: Caspase-3 activity in LS1034 human colon MDR carcinoma cells. The class given is cell-based. Particulars: 10 or 20 μM, 4 hr after exposure. On the procedure: Caspase 3 activity was measured by an enzymatic fluorimetric method using a fluorigenic substrate (Ac-DEVD-AMC), which produces blue fluorescence detected at 360 nm wavelength. […] When AMC is cleaved from the substrate by caspase-3, and caspase-3-like enzymes, it produces a yellow-green fluorescence, which can be monitored by a fluorimeter at 460 nm. The amount of yellow green fluorescence is proportional to the activity of caspase-3 in the cell extract sample.
Whole cell lysate was added to a buffer containing 100 μM peptide substrate, 100 mM HEPES, 10% glycerol, 1 mM EDTA and 10 mM dithiothreitol. Measurements were taken every 5 min for 80 min. These experiments were also monitored in the presence of a specific caspase-3 inhibitor, DEVD-AMC-CHO, which was added after 45 or 60 min to the reaction mixture, to ascertain the specificity of the enzyme.

Series [13] relates to human glioma U87 cells. Put plainly: Viability of human glioma U87 cell-line. The class given is cell-based. Particulars: FIG. 9.
Series [14] relates to human keratinocytes (HaCat cells). Put plainly: Viability of human keratinocytes (HaCat cells), neutral red staining. Conditions: 24 hr, read-out: IC50, cell viability. The class given is cell-based.
[15] abbreviates: FIG. 1C, read-out: IC50, inhibition of cell viability.

Read-outs that look alike come from different tables or passages of the source.

One may read the inhibition as the drop in the measured response relative to a control, in per cent. As usually defined, the IC50 is the point on the concentration scale where inhibition reaches its midpoint. Take `CN[C@H]1CC[C@@H](c2ccc(Cl)c(Cl)c2)c2ccc(C#CCCCOC)cc21.Cl` [compound (Ic), (1S-cis)-4-(3,4-dichlorophenyl)-7-(5-methoxy-1-pentyn-1-yl)-1,2,3,4-tetrahydro-N-methyl-1-naphthalenamine hydrochloride]: in [1], the inhibition at 10 µM is ~95% and the “effect on cell proliferation” value is recorded as “dose dependent decrease in cell proliferation”. For the same molecule, half-maximal inhibition in [2] (IC50) was put at 13.5 µM. Besides, the IC50 in series [3] (FIG. 1B, read-out: IC50, decrease in cell viability) came out at 17 µM. Moreover, the “potency compared with sertraline” value in series [3] (lower concentrations (1-10 μM), FIG. 1B) is recorded as “higher potency than sertraline”.

For `O=c1[nH]cc(F)c(=O)[nH]1` [5 FU, fluorouracil, reference compound], the tumor volume result in [4] (HT29 tumor in nude mice, ip 3 times weekly, after 3 and 4 weeks of therapy, FIG. 16) was “significantly decreased compared to the control groups”.

For the molecule `CN(C)CCC[C@@]1(c2ccc(F)cc2)OCc2cc(C#N)ccc21` [ecitalopram, reference compound], in series [3] (low concentrations (2.5 and 5.0 μM), FIG. 1A), the “effect on cell viability” value is listed as “slight decrease in cell-viability”. The effect on cell-viability result in series [5] (up to 30 μM) is reported as “no effect on cell-viability”.

As for `OCCCC#Cc1cc2c(cc1OC[C@@H]1CNCC[C@H]1c1ccc(F)cc1)OCO2` [compound (Ib), (3S-trans)-3-((6-(5-hydroxy-1-pentyn-1-yl)-1,3-benzodioxol-5-yloxy)methyl)-4-(4-fluorophenyl)-piperidine], in series [1], the “effect compared to sertraline and paroxetine” value was “significantly higher effects compared to sertraline and paroxetine”; the cell proliferation is 43.6 % of controls; the “effect on cell proliferation” value is recorded as “dose dependent decrease in cell proliferation”. Further, the IC50 in [2] was 7.6 µM. Further, the IC50 in series [3] (setting [15]) came to 19.5 µM. Also, the “potency compared with paroxetine” value in series [3] (concentrations higher than 5 μM, FIG. 1C) was “higher potency than paroxetine”.

`C[C@@H]1C[C@H]2[C@@H]3CCC4=CC(=O)C=C[C@]4(C)[C@@]3(F)[C@@H](O)C[C@]2(C)[C@@]1(O)C(=O)CO` [dexamethasone, reference compound]: the cytotoxicity at 20 µM in series [6] was 8%.

In general, viability refers to the share of living cells, or the viability signal relative to a control. In the case of `COc1cccc2c1C(=O)c1c(O)c3c(c(O)c1C2=O)C[C@@](O)(C(=O)CO)C[C@@H]3O[C@H]1C[C@H](N)[C@H](O)[C@H](C)O1` [doxorubicin, reference compound], in series [1], the cell proliferation is 65.7 % of controls and the inhibition at 10 µM is ~95%. Further, in series [7], the viability at 30 µM worked out at 57.7%. Further, the “effect on cell viability compared with the antidepressants and compound (Ia)” value in [8] (10 and 20 μM, FIG. 2A) is “more pronounced than that produced by the antidepressants and compound (Ia)”. The cytotoxicity at 20 µM in series [9] stood at 54%.

Turning to `CN[C@H]1CC[C@@H](c2ccc(Cl)c(Cl)c2)c2ccccc21` [sertraline], the “mean IC70” value in series [10] stood at 13 µM. In addition, the viability at 30 µM in series [7] was found to be 60.3%. In addition, in series [11], the “effect on c-Jun / p-c-Jun (MAPK pathway)” value was “activation of the c-Jun-N-terminal kinase (JNK) pathway”. In addition, the caspase-3 activity result in series [12] is on record as “dose dependent increase in the activity of caspase-3”. Also, the “potency compared with paroxetine” value in series [8] (10-30 μM, FIG. 2A) was “higher potency than paroxetine”. Besides, the “potency compared with paroxetine and fluoxetine” value in series [8] (equimolar doses, FIG. 2B) was “significantly more potent than paroxetine and fluoxetine”. In series [13], the “effect on cell viability” value is listed as “inhibit this glioma cell-line in a dose dependant fashion” and the “efficacy compared with paroxetine” value is on record as “higher efficacy than paroxetine”. In addition, the “decrease in body weight” value in [4] (compared to 5 FU or controls, FIG. 18) is listed as 10%. For the same molecule, the “histopathological assessment of spleen, liver and kidney” value in [4] (end of treatment) is reported as “change in capsule fibrosis at random”.

Take `Fc1ccc([C@@H]2CCNC[C@H]2COc2ccc3c(c2)OCO3)cc1` [paroxetine, reference compound]: the IC50 in [14] turned out to be 16 µM; in [2] it was 12.3 µM; in [3] (FIG. 1A, read-out: IC50, anti-proliferative activity), 37.7 µM; in [3] (setting [15]), 37.6 µM; in series [5] (Splenocyte, 48 hr, alamar blue, read-out: IC50, inhibition in cell viability), 11.9 µM. Moreover, the viability at 30 µM in series [7] stood at 74%. For the same molecule, in [12], the caspase-3 activity result is “dose dependent increase in the activity of caspase-3”. Further, in series [13], the “effect on cell viability” value was “inhibit this glioma cell-line in a dose dependant fashion”.
